According to DBAASP:
≈ marks a conversion by molar mass, not a printed value. Where “and” joins values, the source holds several entries; their conditions need not be identical. Equal values may be shown once. Values belong to the molecule of their own block, whether it stands above or below them.

Key:
Assay in all cases: ≥ marks a high value that may be exact or a test limit, other limits are often not marked, values filed in µg/mL are converted to µM
[1] = system: Escherichia coli ATCC 25922
[2] = system: Klebsiella pneumoniae ATCC 700603
[3] = system: Escherichia coli ATCC 25726
[4] = system: Staphylococcus aureus ATCC 25923
[5] = system: Staphylococcus aureus NCTC 8325
[6] = system: Acinetobacter baumannii I NM8
[7] = system: Candida albicans ATCC 90028
[8] = system: Staphylococcus aureus CIB 85462
[9] = system: Escherichia coli CIB 84492
[10] = system: Candida albicans CIB 45437
[11] = system: Pseudomonas aeruginosa ATCC 27853
[12] = system: Staphylococcus aureus
[13] = system: Serratia marcescens
[14] = system: Pseudomonas aeruginosa KCTC 1637
[15] = system: Escherichia coli KCTC 1682
[16] = system: Staphylococcus epidermidis ATCC 12228
[17] = system: Streptococcus agalactiae
[18] = system: Salmonella enterica subsp. enterica serovar Typhimurium ATCC 14028
[19] = system: Escherichia coli D21
[20] = system: Candida albicans
[21] = system: Staphylococcus epidermidis KCTC 1917
[22] = system: Serratia marcescens ATCC 8100
[23] = system: Salmonella typhimurium KCTC 1926
[24] = system: Enterococcus faecium
[25] = system: Bacillus megaterium Bm11
[26] = system: Staphylococcus aureus Cowan 1
[27] = system: Cryptococcus neoformans
[28] = system: Escherichia coli ML-35
[29] = system: Bacillus subtilis KCTC 3068
[30] = system: Staphylococcus aureus KCTC 1621
[31] = system: Escherichia coli O18:K1:H7 Bort
[32] = system: Micrococcus luteus
[33] = system: Staphylococcus aureus 710A
[34] = system: Staphylococcus epidermidis LT1324
[35] = system: Staphylococcus aureus LT1338
[36] = system: Staphylococcus simulans
[37] = system: Citrobacter freundii
[38] = system: Staphylococcus haemolyticus
[39] = system: Pseudomonas aeruginosa
[40] = system: Escherichia coli
[41] = system: Klebsiella pneumoniae
[42] = system: Staphylococcus aureus LT1334
[43] = system: Stenotrophomonas maltophilia
[44] = system: Shigella dysenteriae ATCC 2932
[45] = system: Shigella dysenteriae
[46] = system: Candida albicans ATCC 3007
[47] = system: Staphylococcus aureus ATCC 2576
[48] = system: Escherichia coli ATCC 25629

MIC [1]: > 100 µM
MIC [2]: > 50 µM
MIC [3]: ≥ 100 µM
MIC [4]: 160 µM and 100 µM
MIC [5]: ≥ 100 µM
MIC [6]: 25 µM (≈ 50 µg/mL)
MIC [7]: ≥ 100 µM
Structure (SMILES): CC[C@H](C)[C@H](NC(=O)[C@@H](NC(=O)[C@H](C)NC(=O)[C@H](CCCCN)NC(=O)[C@H](C)NC(=O)[C@@H](NC(=O)[C@H](CCCCN)NC(=O)CNC(=O)[C@H](CC(C)C)NC(=O)[C@H](C)NC(=O)[C@@H](NC(=O)CNC(=O)[C@H](C)NC(=O)[C@H](CCCCN)NC(=O)[C@@H](NC(=O)[C@H](C)NC(=O)[C@H](CCSC)NC(=O)CN)[C@@H](C)O)[C@@H](C)O)C(C)C)C(C)C)C(=O)NCC(=O)N[C@@H](C)C(=O)N[C@@H](C)C(=O)N[C@@H](CC(C)C)C(N)=O [GMATKAGTALGKVAKAVIGAAL]

MIC [1]: 50 µM (≈ 128 µg/mL)
MIC [8]: 12.5 µM (≈ 32 µg/mL)
MIC [3]: ≥ 48.8 µM
MIC [4]: 3.12 µM (≈ 7.99 µg/mL)
MIC [9]: 25 µM (≈ 64 µg/mL)
MIC [10]: ≥ 50 µM
Structure (SMILES): CC[C@H](C)[C@@H]1NC(=O)[C@H](C)NC(=O)[C@@H](NC(=O)[C@H](Cc2ccccc2)NC(=O)[C@@H](NC(=O)[C@@H](NC(=O)[C@@H]2CCCN2C(=O)[C@@H](NC(=O)[C@@H](NC(=O)[C@H](CCC(N)=O)NC(=O)[C@H](C)NC(=O)[C@H](C)NC(=O)[C@@H](NC(=O)[C@H](CCCN=C(N)N)NC(=O)[C@H](CC(C)C)NC(=O)[C@@H](NC(=O)[C@H](C)NC(=O)[C@@H]2CCCN2C(=O)[C@H](CC(C)C)NC(=O)[C@@H](N)Cc2ccccc2)C(C)C)C(C)C)C(C)C)C(C)C)[C@@H](C)O)C(C)C)CSSC[C@@H](C(=O)O)NC(=O)[C@H](CCCCN)NC(=O)[C@H](CCCCN)NC(=O)[C@H](CO)NC1=O [FLPAVLRVAAQVVPTVFCAISKKC]

MIC [11]: 1 µM (≈ 3.28 µg/mL)
MIC [12]: 4 µM (≈ 13.1 µg/mL)
MIC [1]: 1 µM (≈ 3.28 µg/mL)
MIC [13]: 2.83 µM (≈ 9.28 µg/mL)
MIC [14]: 2 µM (≈ 6.56 µg/mL)
MIC [15]: 4 µM (≈ 13.1 µg/mL)
MIC [16]: 1 µM (≈ 3.28 µg/mL)
MIC [17]: 2.83 µM (≈ 9.28 µg/mL)
MIC [18]: 1 µM (≈ 3.28 µg/mL)
MIC [19]: 0.25 µM (≈ 0.821 µg/mL)
MIC [20]: 8 µM (≈ 26.3 µg/mL)
MIC [21]: 2 µM (≈ 6.56 µg/mL)
MIC [22]: 2 µM (≈ 6.56 µg/mL)
MIC [4]: 2 µM (≈ 6.56 µg/mL)
MIC [23]: 1 µM (≈ 3.28 µg/mL)
MIC [24]: 5.66 µM (≈ 18.6 µg/mL)
MIC [25]: 2 µM (≈ 6.56 µg/mL)
MIC [26]: 2 µM (≈ 6.56 µg/mL)
MIC [27]: 4 µM (≈ 13.1 µg/mL)
MIC [28]: 1 µM (≈ 3.28 µg/mL)
MIC [29]: 2 µM (≈ 6.56 µg/mL)
MIC [30]: 4 µM (≈ 13.1 µg/mL)
MIC [31]: 0.5 µM (≈ 1.64 µg/mL)
Structure (SMILES): CC[C@H](C)[C@H](NC(=O)[C@@H](NC(=O)[C@@H]1CCCN1C(=O)[C@H](CO)NC(=O)[C@H](CC(C)C)NC(=O)[C@H](CCCCN)NC(=O)[C@H](CCCCN)NC(=O)[C@H](Cc1ccccc1)NC(=O)[C@H](CC(C)C)NC(=O)[C@H](CCCCN)NC(=O)[C@H](CCCCN)NC(=O)[C@H](Cc1ccccc1)NC(=O)[C@H](CCCCN)NC(=O)[C@H](CCCCN)NC(=O)[C@H](CCCN=C(N)N)NC(=O)[C@H](Cc1ccccc1)NC(=O)[C@H](CCCN=C(N)N)NC(=O)[C@H](CCCCN)NC(=O)[C@H](Cc1ccccc1)NC(=O)[C@H](CCCN=C(N)N)NC(=O)CN)C(C)C)C(=O)N1CCC[C@H]1C(=O)N[C@@H](CC(C)C)C(=O)N[C@@H](CC(C)C)C(=O)N[C@@H](Cc1cnc[nH]1)C(=O)N[C@@H](CC(C)C)C(=O)NCC(N)=O [GRFKRFRKKFKKLFKKLSPVIPLLHLG]

Structure (SMILES): CC[C@H](C)[C@H](NC(=O)[C@H](CCCN=C(N)N)NC(=O)[C@H](C)NC(=O)[C@H](CC(C)C)NC(=O)[C@H](CCCN=C(N)N)NC(=O)CNC(=O)[C@H](Cc1ccccc1)NC(=O)[C@@H](NC(=O)[C@H](CO)NC(=O)CNC(=O)[C@H](CC(C)C)NC(=O)CN)C(C)C)C(=O)N[C@@H](CC(C)C)C(=O)NCC(=O)N[C@@H](CCCN=C(N)N)C(=O)N[C@H](C(=O)N[C@H](C(=O)N1CCC[C@H]1C(=O)N[C@@H](CCCCN)C(=O)N[C@H](C(N)=O)C(C)C)[C@@H](C)CC)C(C)C [GLGSVFGRLARILGRVIPKV]
MIC [11]: 8 µM (≈ 16.9 µg/mL)
MIC [12]: 2 µM (≈ 4.22 µg/mL)
MIC [32]: 0.5 µM (≈ 1.05 µg/mL)
MIC [33]: 4 µM (≈ 8.43 µg/mL)
MIC [34]: 2 µM (≈ 4.22 µg/mL)
MIC [35]: 3 µM (≈ 6.32 µg/mL)
MIC [36]: 2 µM (≈ 4.22 µg/mL)
MIC [18]: 8 µM (≈ 16.9 µg/mL)
MIC [37]: 2 µM (≈ 4.22 µg/mL)
MIC [38]: 2 µM (≈ 4.22 µg/mL)
MIC [39]: 4 µM (≈ 8.43 µg/mL)
MIC [20]: > 4 µM
MIC [40]: 2.83 µM (≈ 5.96 µg/mL)
MIC [24]: 2 µM (≈ 4.22 µg/mL)
MIC [41]: 2 µM (≈ 4.22 µg/mL)
MIC [25]: 2 µM (≈ 4.22 µg/mL)
MIC [42]: 1.5 µM (≈ 3.16 µg/mL)
MIC [28]: 2 µM (≈ 4.22 µg/mL)
MIC [43]: 2 µM (≈ 4.22 µg/mL)

MIC [12]: 1.93 µM (≈ 5 µg/mL)
MIC [45]: 2.89 µM (≈ 7.5 µg/mL)
MIC [46]: 5.78 µM (≈ 15 µg/mL)
MIC [40]: 5.78 µM (≈ 15 µg/mL)
MIC [47]: 0.463 µM (≈ 1.2 µg/mL)
MIC [48]: 4.82 µM (≈ 12.5 µg/mL)
Structure (SMILES): CSCC[C@H](NC(=O)[C@H](CCCCN)NC(=O)[C@@H]1CCCN1C(=O)[C@H](CC(C)C)NC(=O)[C@@H](N)Cc1ccccc1)C(=O)N[C@@H](CO)C(=O)N[C@H](C(=O)N[C@@H](CCCCN)C(=O)N[C@@H](CC(C)C)C(=O)N[C@@H](CCCN=C(N)N)C(=O)N[C@H](C(=O)N1CCC[C@H]1C(=O)N[C@@H](Cc1ccc(O)cc1)C(=O)N[C@@H](CCCN=C(N)N)C(=O)N[C@@H](CCCN=C(N)N)C(=O)NCC(=O)N[C@H](C(=O)N[C@@H](CCCCN)C(=O)N[C@@H](CC(=O)O)C(=O)N[C@@H](Cc1ccc(O)cc1)C(=O)N[C@@H](Cc1cnc[nH]1)C(=O)O)[C@@H](C)O)C(C)C)[C@@H](C)O [FLPKMSTKLRVPYRRGTKDYH]
MIC [44]: 2.89 µM (≈ 7.5 µg/mL)
